Laboratory results reported in patent US20240116985A1, “STAPLED PEPTIDES AND METHODS THEREOF” (priority 2020, published 2024).
Values after ≈ are worked out from the molar mass of the structure shown. Values joined by “and” are separate entries in the source; they are usually repeats but may differ in a detail not shown here. Equal entries are not always repeated. Where two headings read alike, the source gives them in different places.

Legend:
Solubility in PBS = type: physicochemical
Summary of the method: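 Solubility is derived from HPLC peak areas: the ratio of the PBS supernatant peak to a 50 μM DMSO peptide peak, times 50 uM.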

CHI Log D procedure = type: physicochemical; settings: pH 7.4, CHI Log D
HEK293 cells = assay: in vitro; type: cell-based; settings: human, 1.25 µM
Description: (§1) On Day 3, fluorescence was read with Nano-BRET substrates. Remove plates from incubator to allow to reach to RT (30 min). Also equilibrate CTG reagent to Rm Temp. Dilute Nano-BRET substrate 1:100 in Assay media. Add 25 uL of diluted substrate to each well and shake for 30 seconds. Read on ClarioSTAR or GloMAX right away (within 10 min). Donor emission @ 460 nm. Acceptor emission @ 618 nm. Use the same plate to measure cell viability (Cell Titer-Glo-2.0 (CTG) Viability test). After reading BRET signal, add CTG reagent to each well at 1:2 ratio and shake on orbital shaker for 2 min. Incubate at Rm Temp for 10-30 min. Read luminescence on ClarioSTAR or GloMAX. Analysis was performed using Prism. Non-linear regression. Log (inhibitor) vs response—variable slope (four parameters). For CTG data linear values (not logarithmic).

in vitro = type: cell-based; settings: human, HEK293 cells, CTG (CellTiter Glo) Relative to Media
Description: as §1

[1] = biological target: T1, beta-catenin/TCF4 engagement (Homo sapiens, UniProt P35222); assay: Nano-BRET target engagement assay (B-cat-Halo & TCF4-Luc in HEK293 cells); type: cell-based; settings: for BRET % Inhibition: replicates
T1 construct: expressed in transfected cells; host or cells: HEK293
T1 sequence (P35222 1-781): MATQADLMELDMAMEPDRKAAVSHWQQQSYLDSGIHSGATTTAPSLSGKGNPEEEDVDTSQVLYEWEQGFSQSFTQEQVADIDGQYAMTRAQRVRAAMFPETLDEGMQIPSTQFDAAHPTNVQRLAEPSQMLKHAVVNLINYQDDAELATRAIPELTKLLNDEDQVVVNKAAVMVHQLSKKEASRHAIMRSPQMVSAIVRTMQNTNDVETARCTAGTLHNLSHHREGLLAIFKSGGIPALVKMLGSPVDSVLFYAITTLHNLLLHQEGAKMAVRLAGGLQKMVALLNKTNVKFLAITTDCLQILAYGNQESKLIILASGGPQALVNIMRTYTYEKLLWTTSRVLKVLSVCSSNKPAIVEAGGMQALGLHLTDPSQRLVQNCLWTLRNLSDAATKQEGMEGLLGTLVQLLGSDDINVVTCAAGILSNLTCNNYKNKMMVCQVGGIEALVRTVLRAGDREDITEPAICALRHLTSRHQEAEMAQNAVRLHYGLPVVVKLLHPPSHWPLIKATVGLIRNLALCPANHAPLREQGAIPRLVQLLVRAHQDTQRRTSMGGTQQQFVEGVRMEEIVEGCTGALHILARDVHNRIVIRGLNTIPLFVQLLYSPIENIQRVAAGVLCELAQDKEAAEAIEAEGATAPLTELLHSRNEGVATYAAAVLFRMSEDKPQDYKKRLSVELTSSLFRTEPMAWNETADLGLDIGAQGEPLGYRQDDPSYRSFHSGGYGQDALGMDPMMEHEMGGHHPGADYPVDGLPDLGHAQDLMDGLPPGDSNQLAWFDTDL

[2] = biological target: T2, full-length beta-Catenin (Uniprot ID P35222) (Homo sapiens, UniProt P35222); assay: Fluorescence polarization IC50 (beta-catenin / 5FAM-TCF4 10-53 competition); type: binding
T2 construct: 10 nM full-length beta-Catenin (Uniprot ID P35222)
T2 sequence (P35222 1-781): T1 sequence (P35222 1-781)

COLO320DM cells = type: cell-based; settings: read-out: COLO320DM Proliferation Abs IC50
Summary of the method: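 COLO320DM cells at 250 cells/well in RPMI-1640 + 4% HI FBS, dosed after 18–22 h with a 7-point […] 1/2 dilution series from 20 uM down to 313 nM.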

[3] = system: TCF/LEF luciferase Reporter in DLD1 cells; assay: TCF reporter assay (DLD1 TCF/LEF luciferase reporter, Bright-Glo); type: cell-based
Summary of the method: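 DLD1 cells stably carrying a TCF/LEF luciferase reporter were plated at 5000 cells/well in RPMI + 4% FBS and treated overnight with a 1:2 compound dilution series. Bright-Glo luminescence read on day 3; viability by CellTiter-Glo. Absolute IC50 determined.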

[4] = plate row B = 20 uM, integration 0.3 s, reading 1
[5] = fluorescence polarization, beta-catenin, read-out: FP EC50
[6] = read-out: DLD1 4% Abs IC50, DLD1 4%

CC(=O)N1CCC[C@]12CC=CCCCC1(CCCC=CCCCOC(=O)N3CC[C@@](C(=O)N[C@@H](Cc4ccsc4)C(=O)N[C@@H](Cc4csc5ccccc45)C(=O)N[C@@H](CCC(N)=O)C(N)=O)(C3)NC(=O)[C@H](CC(N)=O)NC(=O)[C@H](CC(=O)O)NC(=O)[C@H](C)NC(=O)[C@H](C)NC(=O)[C@H](CC(=O)O)NC(=O)[C@H](CC(=O)O)NC1=O)NC(=O)[C@H](CC(C)(C)C)NC(=O)[C@H](Cc1ccccc1)NC2=O (stereo partly drawn) [I-797, Ac-PL3-Phe-Npg-B5-Asp-Asp-Ala-Ala-Asp-Asn-PyrS2-3Thi-BztA-Gln-NH2]
solubility at 15 min (Solubility in PBS; Solubility (uM)): 45 µM (≈ 86.3 µg/mL)
chromatographic logD (CHI Log D procedure): 2.32
CTG (CellTiter Glo) Relative to Media (HEK293 cells): 101
viability at 0.625 µM (in vitro): 104%
viability at 1.25 µM (in vitro): 104%
viability at 2.5 µM (in vitro): 103%
viability at 5 µM (in vitro): 102%
viability at 10 µM (in vitro): 100%
viability at 20 µM (in vitro): 92%
BRET % Inhibition ([1]; 0.625 uM): −56.5% and −6.9% and 8.3%
BRET % Inhibition ([1]; 1.25 uM): −24.8% and −1.1% and −4.0%
BRET % Inhibition ([1]; 2.5 uM): −21.3% and 26.5% and −11.7%
BRET % Inhibition ([1]; 5 uM): −16.9% and −28.4% and −18.6%
BRET % Inhibition ([1]; 10 uM): −21.7% and −21.9% and 1.7%
BRET % Inhibition ([1]; 20 uM): −36.7% and −0.3% and −19.5%
inhibition at 10 µM ([1]; HEK293, @ 10 uM, read-out: NanoBRET % inh @ 10 uM): 4.3%
BRET Acceptor 600 LP raw reading [1, 4]: 860 and 660 and 640
BRET Donor 450 BP raw reading [1, 4]: 58480 and 55870 and 47990
BRET Acceptor 600 LP raw reading ([1]; plate row D = 5 uM): 510 and 420 and 630
BRET Donor 450 BP raw reading ([1]; plate row D = 5 uM): 38850 and 29900 and 47500
BRET Donor 450 BP raw reading ([1]; plate row E = 2.5 uM): 34130 and 22720 and 40100
BRET Acceptor 600 LP raw reading ([1]; plate row G = 0.625 uM): 410 and 440 and 530
BRET Donor 450 BP raw reading ([1]; plate row G = 0.625 uM): 25180 and 35670 and 47630
IC50 ([1]; read-out: NanoBRET IC50): > 20 µM

CC(=O)N1CCC[C@]12CC=CCCCC1(CCCC=CCCCOC(=O)N3CC[C@@](C(=O)N[C@@H](Cc4ccccc4Cl)C(=O)N[C@@H](Cc4csc5ccccc45)C(=O)N[C@@H](CCO)C(N)=O)(C3)NC(=O)[C@H](CCO)NC(=O)[C@H](Cc3ccccc3)NC(=O)[C@H](C)NC(=O)[C@H](C)NC(=O)[C@H](CN(CC(=O)O)CC(F)(F)F)NC(=O)[C@H](CC(=O)O)NC1=O)NC(=O)[C@H](CC(C)(C)C)NC(=O)[C@H](CC(=O)O)NC2=O (stereo partly drawn) [I-993, Ac-PL3-Asp-Npg-B5-Asp-TfeGA-Ala-Ala-Phe-Hse-PyrS2-2C1F-BztA-Hse-NH2]
Solubility (Solubility in PBS; Solubility (uM)): 41 µM (≈ 82.7 µg/mL)
chromatographic logD (CHI Log D procedure): 2.33
IC50 [2, 5]: 12 nM
IC50 ([2]; read-out: beta-Catenin FP IC50): 18 nM
IC50 (COLO320DM cells): 3.6 µM
IC50 ([3]; Peptide + ST-Protein (SAINT-Protein lipid), read-out: TCF Reporter Assay Abs IC50): 0.2 µM
IC50 ([3]; Peptide only, read-out: TCF Reporter Assay Abs IC50): 5 µM
IC50 ([3]; absolute IC50, read-out: DLD1 reporter assay Abs IC50): 4.4 µM
IC50 [3, 6]: 1.8 µM
IC50 ([1]; Peptide + ST-Protein (SAINT-Protein lipid), read-out: Nano-BRET Abs IC50): 0.9 µM
IC50 ([1]; Peptide only, read-out: Nano-BRET Abs IC50): 7 µM
IC50 ([1]; absolute IC50, read-out: NanoBRET Abs IC50): 4 µM
IC50 ([1]; read-out: NanoBRET Abs IC50): 4.9 µM

CC(=O)N1CCC[C@]12CC=CCCCC1(CCCC=CCCCOC(=O)N3CC[C@@](C(=O)N[C@@H](Cc4ccsc4)C(=O)N[C@@H](Cc4csc5ccccc45)C(=O)N[C@@H](CCC(N)=O)C(N)=O)(C3)NC(=O)[C@H](CC(C)C)NC(=O)[C@H](Cc3ccccc3)NC(=O)[C@H](C)NC(=O)[C@H](C)NC(=O)[C@H](CC(=O)O)NC(=O)[C@H](CC(=O)O)NC1=O)NC(=O)[C@H](CC(C)(C)C)NC(=O)[C@H](CC(=O)O)NC2=O (stereo partly drawn) [I-801, Ac-PL3-Asp-Npg-B5-Asp-Asp-Ala-Ala-Phe-Leu-PyrS2-3Thi-BztA-Gln-NH2]
Solubility (Solubility in PBS): 50 µM (≈ 95.9 µg/mL)
chromatographic logD (CHI Log D procedure): 2.21
IC50 [2, 5]: 6 nM
IC50 ([2]; read-out: beta-Catenin FP IC50): 7 nM
IC50 (COLO320DM cells): > 20 µM
IC50 [3, 6]: 4.3 µM
IC50 ([1]; read-out: NanoBRET Abs IC50): 5.8 µM
IC50 ([1]; read-out: NanoBRET IC50): 6.8 µM
